Measured values as given in ChEMBL document CHEMBL3525920, “CYP4F enzymes are responsible for the elimination of fingolimod (FTY720), a novel treatment of relapsing multiple sclerosis” (Drug Metab Dispos, 2011).
Blank lines part the entries; values can stand above or below the molecule they belong to.

What was measured:
[1] = Retention time of the compound by long gradient-based HPLC-RA analysis; type: physicochemical
[2] = Retention time of the compound by C18 advantage armor column based LC-MS analysis; type: physicochemical
[3] = Retention time of the compound by symmetry C18 column based LC-MS analysis; type: physicochemical
Cytochrome P450 2D6 = Cytochrome P450 2D6 (Homo sapiens, UniProt P10635); assay: Activity at human recombinant CYP2D6 expressed in baculovirus-infected BTI-TN-5B1-4 insect cell microsomes assessed as relative abundance of compound formation treated with [14C]fingolimod at 20 uM after 30 mins by HPLC-RA analysis; type: ADME; conditions: bti-tn-5b1-4, 0.5 h
Chain of Cytochrome P450 2D6 (P10635 whole entry): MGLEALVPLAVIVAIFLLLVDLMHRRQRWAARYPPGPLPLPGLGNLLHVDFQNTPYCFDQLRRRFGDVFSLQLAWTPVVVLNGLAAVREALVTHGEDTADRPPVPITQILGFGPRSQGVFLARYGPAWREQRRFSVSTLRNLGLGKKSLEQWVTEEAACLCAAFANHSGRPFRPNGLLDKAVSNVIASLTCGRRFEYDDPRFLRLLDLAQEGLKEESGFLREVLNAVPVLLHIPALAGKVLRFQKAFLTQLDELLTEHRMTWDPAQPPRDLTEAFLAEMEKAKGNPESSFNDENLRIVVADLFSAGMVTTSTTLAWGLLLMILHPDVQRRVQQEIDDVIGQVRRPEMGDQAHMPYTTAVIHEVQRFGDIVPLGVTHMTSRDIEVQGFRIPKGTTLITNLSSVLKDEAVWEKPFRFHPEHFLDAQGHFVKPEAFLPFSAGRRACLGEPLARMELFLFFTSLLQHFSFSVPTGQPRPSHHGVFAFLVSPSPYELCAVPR

Cytochrome P450 4F2 [4] = biological target: T1, Cytochrome P450 4F2 (Homo sapiens, UniProt P78329); assay: Activity at human recombinant CYP4F2 expressed in baculovirus-infected BTI-TN-5B1-4 insect cell microsomes assessed as relative abundance of compound formation treated with [14C]fingolimod at 100 uM after 30 mins by HPLC-RA analysis; type: ADME; conditions: bti-tn-5b1-4, 0.5 h
T1 sequence (P78329 whole entry): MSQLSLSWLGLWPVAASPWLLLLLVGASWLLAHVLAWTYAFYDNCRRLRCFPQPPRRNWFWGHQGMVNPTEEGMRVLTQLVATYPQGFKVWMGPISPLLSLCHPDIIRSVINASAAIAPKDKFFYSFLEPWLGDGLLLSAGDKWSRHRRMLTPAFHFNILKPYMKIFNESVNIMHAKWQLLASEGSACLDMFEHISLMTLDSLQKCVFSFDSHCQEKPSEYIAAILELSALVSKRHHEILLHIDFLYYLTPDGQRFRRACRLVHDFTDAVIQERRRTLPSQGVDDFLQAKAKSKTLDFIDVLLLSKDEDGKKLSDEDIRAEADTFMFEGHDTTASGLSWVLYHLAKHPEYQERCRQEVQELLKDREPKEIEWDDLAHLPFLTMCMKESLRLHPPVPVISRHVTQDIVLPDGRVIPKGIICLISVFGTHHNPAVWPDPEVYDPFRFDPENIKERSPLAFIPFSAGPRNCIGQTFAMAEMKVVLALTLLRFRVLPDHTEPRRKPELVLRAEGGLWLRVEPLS

Cytochrome P450 4F3 = Cytochrome P450 4F3 (Homo sapiens, UniProt Q08477); assay: Activity at human recombinant CYP4F3B expressed in baculovirus-infected BTI-TN-5B1-4 insect cell microsomes assessed as relative abundance of compound formation treated with [14C]fingolimod at 100 uM after 30 mins by HPLC-RA analysis; type: ADME; conditions: bti-tn-5b1-4, 0.5 h
Chain of Cytochrome P450 4F3 (Q08477 whole entry): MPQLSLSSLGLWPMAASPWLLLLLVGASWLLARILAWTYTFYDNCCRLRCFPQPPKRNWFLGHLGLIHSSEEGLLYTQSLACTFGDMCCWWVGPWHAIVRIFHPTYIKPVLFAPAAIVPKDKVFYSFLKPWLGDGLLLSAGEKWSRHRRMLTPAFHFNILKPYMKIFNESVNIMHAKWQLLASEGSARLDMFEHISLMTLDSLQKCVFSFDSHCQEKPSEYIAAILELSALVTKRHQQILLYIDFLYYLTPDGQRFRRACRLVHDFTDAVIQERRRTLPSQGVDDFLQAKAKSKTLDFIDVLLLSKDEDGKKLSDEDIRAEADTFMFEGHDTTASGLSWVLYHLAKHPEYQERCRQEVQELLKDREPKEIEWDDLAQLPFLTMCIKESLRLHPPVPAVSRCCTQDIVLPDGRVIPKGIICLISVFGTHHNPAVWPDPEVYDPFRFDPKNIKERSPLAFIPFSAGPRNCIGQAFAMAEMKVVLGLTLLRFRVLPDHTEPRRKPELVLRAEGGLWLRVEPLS

[5] = Terminal half life in human; type: ADME, organism-based; parameters: dosed compound name Fingolimod; conditions: in vivo, read-out: beta t1/2 (converted)
Cytochrome P450 4F2 [6] = biological target: T1, Cytochrome P450 4F2; assay: Inhibition of human recombinant CYP4F2 assessed as fingolimod metabolism; type: ADME
Cytochrome P450 4F2 [7] = biological target: T1, Cytochrome P450 4F2; assay: Inhibition of human CYP4F2 in human liver microsomes assessed as fingolimod metabolism; type: ADME
[8] = substrate: CCCCCCCCc1ccc(CCC(N)(CO)CO)cc1; assay: Activity at human recombinant CYP4F2 expressed in baculovirus-infected BTI-TN-5B1-4 insect cell microsomes assessed as metabolite formation after 15 mins by Eadie-Hofstee plot analysis; type: ADME

Retention_time [1]: 34.7 min | Retention_time [2]: 35.4 min | Retention_time [3]: 32.1 min | Compound recovery (Cytochrome P450 2D6): 1.02% | Compound recovery (Cytochrome P450 4F2 [4]): 2.99% | Compound recovery (Cytochrome P450 4F3): 0.84%
Molecule: NC(CO)(CO)CCc1ccc(CCCCCCCCO)cc1

half-life [5]: 120 h
Molecule: CCCCCCCCc1ccc(CCC(N)(CO)CO)cc1 [FINGOLIMOD]

Further lines, the molecule ahead of its results:

Molecule: CC(=O)N1CCN(c2ccc(OCC3COC(Cn4ccnc4)(c4ccc(Cl)cc4Cl)O3)cc2)CC1 (stereo unspecified) [KETOCONAZOLE]
IC50 (Cytochrome P450 4F2 [6]): 1600 nM | Ki (Cytochrome P450 4F2 [7]): 740 nM

B1: Cytochrome P450 4F2 (Homo sapiens) (protein)
chain: T1 sequence (P78329 whole entry)
Km [8]: 45 µM | Vmax [8]: 0.00105 µmol/min
